Target: human F508del-CFTR (Homo sapiens, UniProt P13569, DEL508-508)
Assay: F508del-CFTR cell surface expression (corrector activity), DiscoveRx ß-galactosidase complementation chemiluminescence assay in recombinant U2OS cell line;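 note: U2OS cells co-expressing ProLink-tagged F508del-CFTR and a membrane-anchored enzyme acceptor, where more surface CFTR restores β-galactosidase activity measured by chemiluminescence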
Settings: for EC50: EC50, F508del-CFTR cell surface expression, U2OS cells, 16h compound incubation, geomean values; for Emax: U2OS, in relation to Emax of corrector lumacaftor (=100%), arithmetic mean values

Sequence of human F508del-CFTR (P13569 with tags, fused parts or gaps DEL508-508): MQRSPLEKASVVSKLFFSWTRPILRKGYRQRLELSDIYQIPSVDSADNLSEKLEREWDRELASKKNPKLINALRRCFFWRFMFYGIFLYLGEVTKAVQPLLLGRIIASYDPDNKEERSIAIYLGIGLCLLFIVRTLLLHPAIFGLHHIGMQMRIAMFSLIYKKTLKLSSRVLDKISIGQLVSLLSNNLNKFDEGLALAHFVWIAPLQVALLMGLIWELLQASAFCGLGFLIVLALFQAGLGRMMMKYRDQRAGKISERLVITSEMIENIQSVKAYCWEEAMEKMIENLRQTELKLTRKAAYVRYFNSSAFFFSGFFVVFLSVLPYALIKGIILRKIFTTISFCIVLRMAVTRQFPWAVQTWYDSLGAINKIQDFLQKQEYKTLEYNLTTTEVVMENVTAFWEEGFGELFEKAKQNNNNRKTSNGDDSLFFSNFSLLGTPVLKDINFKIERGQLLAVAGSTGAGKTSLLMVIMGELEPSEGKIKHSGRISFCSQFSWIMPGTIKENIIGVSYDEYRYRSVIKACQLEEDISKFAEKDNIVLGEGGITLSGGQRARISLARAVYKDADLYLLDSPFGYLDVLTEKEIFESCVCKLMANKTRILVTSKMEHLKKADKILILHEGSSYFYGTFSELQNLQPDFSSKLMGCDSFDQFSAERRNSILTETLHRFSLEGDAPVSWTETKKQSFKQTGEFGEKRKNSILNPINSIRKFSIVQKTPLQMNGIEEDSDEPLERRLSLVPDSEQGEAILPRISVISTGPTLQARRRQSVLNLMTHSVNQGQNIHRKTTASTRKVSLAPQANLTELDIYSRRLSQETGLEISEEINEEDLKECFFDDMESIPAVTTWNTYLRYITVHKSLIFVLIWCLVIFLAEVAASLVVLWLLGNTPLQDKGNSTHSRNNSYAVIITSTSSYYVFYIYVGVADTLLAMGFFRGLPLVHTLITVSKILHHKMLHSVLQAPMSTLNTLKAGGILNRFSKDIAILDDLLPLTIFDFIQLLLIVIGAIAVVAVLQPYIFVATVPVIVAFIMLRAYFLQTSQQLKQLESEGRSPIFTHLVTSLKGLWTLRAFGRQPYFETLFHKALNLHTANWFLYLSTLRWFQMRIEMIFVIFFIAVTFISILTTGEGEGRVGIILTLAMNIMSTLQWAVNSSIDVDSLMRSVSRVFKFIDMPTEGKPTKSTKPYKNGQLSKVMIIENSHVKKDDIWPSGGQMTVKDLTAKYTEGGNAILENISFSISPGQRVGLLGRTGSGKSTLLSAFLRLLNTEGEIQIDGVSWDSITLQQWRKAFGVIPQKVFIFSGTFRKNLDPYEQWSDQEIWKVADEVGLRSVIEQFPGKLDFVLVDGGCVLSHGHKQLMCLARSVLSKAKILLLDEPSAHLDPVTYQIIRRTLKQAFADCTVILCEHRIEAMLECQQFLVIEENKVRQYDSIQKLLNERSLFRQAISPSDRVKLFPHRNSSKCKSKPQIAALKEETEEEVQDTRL

| EC50 [nM] | Emax [%] | Structure (SMILES) |
| --- | --- | --- |
| 339 | 288 | Cc1cc(CCNC(=O)[C@@H]2CC(=O)N(C)[C@@H](CC(C)C)C(=O)N3CCN(CC(C)C)C[C@H]3C(=O)N[C@H](Cc3ccccc3)COc3ccc4nc(C)oc4c3C(=O)N2)on1 [Example 621, (8S,12S,18aS,21R)-21-benzyl-12,17-diisobutyl-4,11-dimethyl-N-(2-(3-methylisoxazol-5-yl)ethyl)-6,10,13,19-tetraoxo-6,7,8,9,10,11,12,13,16,17,18,18a,19,20,21,22-hexadecahydro-15H-oxazolo[4′,5′:5,6]benzo[1,2-p]pyrazino[2,1-f][1]oxa[4,7,10,14]tetraazacycloheptadecine-8-carboxamide] |
| 199 | 296 | Cc1cc(CCNC(=O)[C@@H]2CC(=O)N(C)[C@@H](CC(C)C)C(=O)N3CCN(CC(C)C)C[C@@H]3C(=O)N[C@H](Cc3ccccc3)COc3cnc4ccccc4c3C(=O)N2)on1 [Example 622, (9S,13S,19aR,22R)-22-benzyl-13,18-diisobutyl-12-methyl-N-(2-(3-methylisoxazol-5-yl)ethyl)-7,11,14,20-tetraoxo-7,8,9,10,11,12,13,14,17,18,19,19a,20,21,22,23-hexadecahydro-16H-pyrazino[2′,1′:6,7][1]oxa[4,7,10,14]tetraazacycloheptadecino[17,16-c]quinoline-9-carboxamide] |
| 248 | 349 | Cc1cc(CCNC(=O)[C@@H]2CC(=O)N(C)[C@@H](CC(C)C)C(=O)N3CCN(C(C)C)C[C@@H]3C(=O)N[C@H](Cc3ccccc3)COc3ccc4ccccc4c3C(=O)N2)on1 [Example 623, (4aR,7R,18S,22S)-7-benzyl-22-isobutyl-3-isopropyl-21-methyl-N-(2-(3-methylisoxazol-5-yl)ethyl)-5,16,20,23-tetraoxo-2,3,4,4a,5,6,7,8,16,17,18,19,20,21,22,23-hexadecahydro-1H-naphtho[1,2-p]pyrazino[2,1-f][1]oxa[4,7,10,14]tetraazacycloheptadecine-18-carboxamide] |
| 781 | 186 | Cc1nc2ccc3c(c2o1)C(=O)N[C@H](C(=O)NCCc1cccc(OC(F)F)c1)CC(=O)N(C)[C@@H](CC(C)C)C(=O)N1CCOC[C@@H]1C(=O)N[C@H](Cc1ccccc1)CO3 [Example 625] |
| 521 | 215 | Cc1cc(CCNC(=O)[C@@H]2CC(=O)N(C)[C@@H](CC(C)C)C(=O)N3CCCC[C@@H]3C(=O)N[C@H](Cc3ccccc3)COc3ccc4c(C)noc4c3C(=O)N2)on1 [Example 629, (8S,12S,18aR,21R)-21-benzyl-12-isobutyl-3,11-dimethyl-N-(2-(3-methylisoxazol-5-yl)ethyl)-6,10,13,19-tetraoxo-6,7,8,9,10,11,12,13,16,17,18,18a,19,20,21,22-hexadecahydro-15H-isoxazolo[4′,5′:5,6]benzo[1,2-p]pyrido[2,1-f][1]oxa[4,7,10,14]tetraazacycloheptadecine-8-carboxamide] |
| 261 | 175 | Cc1cc(CCNC(=O)[C@@H]2CC(=O)N(C)[C@@H](CC3CCCC3)C(=O)N3CCCC[C@@H]3C(=O)N[C@H](Cc3ccccc3)COc3ccc4c(C)noc4c3C(=O)N2)on1 [Example 630, (8S,12S,18aR,21R)-21-benzyl-12-(cyclopentylmethyl)-3,11-dimethyl-N-(2-(3-methylisoxazol-5-yl)ethyl)-6,10,13,19-tetraoxo-6,7,8,9,10,11,12,13,16,17,18,18a,19,20,21,22-hexadecahydro-15H-isoxazolo[4′,5′:5,6]benzo[1,2-p]pyrido[2,1-f][1]oxa[4,7,10,14]tetraazacycloheptadecine-8-carboxamide] |
| 898 | 133 | Cc1cc(CCNC(=O)[C@@H]2CC(=O)N(C)[C@@H](CC3CCCC3)C(=O)N3CCCC[C@H]3C(=O)N[C@H](Cc3ccccc3)COc3ccc4c(C)noc4c3C(=O)N2)on1 [Example 631, (8S,12S,18aS,21R)-21-benzyl-12-(cyclopentylmethyl)-3,11-dimethyl-N-(2-(3-methylisoxazol-5-yl)ethyl)-6,10,13,19-tetraoxo-6,7,8,9,10,11,12,13,16,17,18,18a,19,20,21,22-hexadecahydro-15H-isoxazolo[4′,5′:5,6]benzo[1,2-p]pyrido[2,1-f][1]oxa[4,7,10,14]tetraazacycloheptadecine-8-carboxamide] |
| 927 | 326 | Cc1cc(CCNC(=O)[C@@H]2CC(=O)N(C)[C@@H](CC(C)C)C(=O)N3CCCC[C@@H]3C(=O)N[C@H](Cc3ccccc3)COc3ccc4nc(C)oc4c3C(=O)N2)on1 [Example 632, (8S,12S,18aR,21R)-21-benzyl-12-isobutyl-4,11-dimethyl-N-(2-(3-methylisoxazol-5-yl)ethyl)-6,10,13,19-tetraoxo-6,7,8,9,10,11,12,13,16,17,18,18a,19,20,21,22-hexadecahydro-15H-oxazolo[4′,5′:5,6]benzo[1,2-p]pyrido[2,1-f][1]oxa[4,7,10,14]tetraazacycloheptadecine-8-carboxamide] |
| 652 | 316 | CO[C@H]1C[C@]2(C1)C(=O)N[C@H](Cc1ccccc1)COc1ccc3ccccc3c1C(=O)N[C@H](C(=O)NCCc1cc(C)no1)CC(=O)N(C)[C@@H](CC(C)C)C(=O)N2C [Example 633, (1r,3S,3′S,7′S,13′R)-13′-benzyl-7′-isobutyl-3-methoxy-6′,9′-dimethyl-N-(2-(3-methylisoxazol-5-yl)ethyl)-1′,5′,8′,11′-tetraoxo-2′,3′,4′,5′,6′,7′,8′,9′,11′,12′,13′,14′-dodecahydro-1′H-spiro[cyclobutane-1,10′-naphtho[1,2-p][1]oxa[4,7,10,14]tetraazacycloheptadecine]-3′-carboxamide] |
| 173 | 178 | Cc1noc2c3c(ccc12)OC[C@@H](Cc1ccccc1)NC(=O)[C@H]1CCCCN1C(=O)[C@H](CC(C)C)N(C)C(=O)C[C@@H](C(=O)NCCc1c(F)cccc1F)NC3=O [Example 634, (8S,12S,18aR,21R)-21-benzyl-N-(2,6-difluorophenethyl)-12-isobutyl-3,11-dimethyl-6,10,13,19-tetraoxo-6,7,8,9,10,11,12,13,16,17,18,18a,19,20,21,22-hexadecahydro-15H-isoxazolo[4′,5′:5,6]benzo[1,2-p]pyrido[2,1-f][1]oxa[4,7,10,14]tetraazacycloheptadecine-8-carboxamide] |
| 404 | 112 | Cc1noc2c3c(ccc12)OC[C@@H](Cc1ccccc1)NC(=O)[C@@H]1CCCCN1C(=O)[C@H](CC(C)C)N(C)C(=O)C[C@@H](C(=O)NCCc1c(F)cccc1F)NC3=O [Example 635, (8S,12S,18aS,21R)-21-benzyl-N-(2,6-difluorophenethyl)-12-isobutyl-3,11-dimethyl-6,10,13,19-tetraoxo-6,7,8,9,10,11,12,13,16,17,18,18a,19,20,21,22-hexadecahydro-15H-isoxazolo[4′,5′:5,6]benzo[1,2-p]pyrido[2,1-f][1]oxa[4,7,10,14]tetraazacycloheptadecine-8-carboxamide] |

| Structure (SMILES) | EC50 [nM] | Emax [%] |
| --- | --- | --- |
| CC(C)C[C@H]1C(=O)N(CCCc2ccccc2)CC(=O)N[C@H](Cc2ccccc2)COc2ccc3ccccc3c2C(=O)N[C@H](C(=O)NCCc2ccc3c(c2)OCO3)CC(=O)N1C [Example 626, (3S,7S,13R)-N-(2-(benzo[d][1,3]dioxol-5-yl)ethyl)-13-benzyl-7-isobutyl-6-methyl-1,5,8,11-tetraoxo-9-(3-phenylpropyl)-1,2,3,4,5,6,7,8,9,10,11,12,13,14-tetradecahydronaphtho[1,2-p][1]oxa[4,7,10,14]tetraazacycloheptadecine-3-carboxamide] | 163 | 253 |
| CC(C)C[C@H]1C(=O)N2CCOC[C@@H]2C(=O)N[C@H](Cc2ccccc2)COc2cnc3c(F)cccc3c2C(=O)N[C@H](C(=O)NCCc2ccc3c(c2)OCCO3)CC(=O)N1C [Example 627, (9S,13S,19aR,22R)-22-benzyl-N-(2-(2,3-dihydrobenzo[b][1,4]dioxin-6-yl)ethyl)-3-fluoro-13-isobutyl-12-methyl-7,11,14,20-tetraoxo-7,8,9,10,11,12,13,14,16,17,19,19a,20,21,22,23-hexadecahydro-[1,4]oxazino[3′,4′:6,7][1]oxa[4,7,10,14]tetraazacycloheptadecino[17,16-c]quinoline-9-carboxamide] | 786 | 395 |
| COc1cccc(CCNC(=O)[C@@H]2CC(=O)N(C)[C@@H](CC(C)C)C(=O)N(C)C3(CC3)C(=O)N[C@H](Cc3ccccc3)COc3ccc4nc(C)oc4c3C(=O)N2)c1 [Example 628, (8′R,14′S,18′S)-8′-benzyl-14′-isobutyl-N-(3-methoxyphenethyl)-2′,12′,15′-trimethyl-10′,13′,16′,20′-tetraoxo-7′,8′,9′,10′,13′,14′,15′,16′,17′,18′,19′,20′-dodecahydro-12′H-spiro[cyclopropane-1,11′-oxazolo[4′,5′:5,6]benzo[1,2-p][1]oxa[4,7,10,14]tetraazacycloheptadecine]-18′-carboxamide] | 363 | 355 |
| CC(C)C[C@H]1C(=O)N2CCCC[C@@H]2C(=O)N[C@H](Cc2ccccc2)COc2cnc3ccc(F)cc3c2C(=O)N[C@H](C(=O)NCCc2c(F)cccc2F)CC(=O)N1C [Example 636, (9S,13S,19aR,22R)-22-benzyl-N-(2,6-difluorophenethyl)-5-fluoro-13-isobutyl-12-methyl-7,11,14,20-tetraoxo-7,8,9,10,11,12,13,14,17,18,19,19a,20,21,22,23-hexadecahydro-16H-pyrido[2′,1′:6,7][1]oxa[4,7,10,14]tetraazacycloheptadecino[17,16-c]quinoline-9-carboxamide] | 91 | 276 |
| CC(C)C[C@H]1C(=O)N2CCCC[C@@H]2C(=O)N[C@H](Cc2ccccc2)COc2cnc3ccc(F)cc3c2C(=O)N[C@H](C(=O)NCCc2noc(C3CC3)n2)CC(=O)N1C [Example 637, (9S,13S,19aR,22R)-22-benzyl-N-(2-(5-cyclopropyl-1,2,4-oxadiazol-3-yl)ethyl)-5-fluoro-13-isobutyl-12-methyl-7,11,14,20-tetraoxo-7,8,9,10,11,12,13,14,17,18,19,19a,20,21,22,23-hexadecahydro-16H-pyrido[2′,11:6,7][1]oxa[4,7,10,14]tetraazacycloheptadecino[17,16-c]quinoline-9-carboxamide] | 106 | 300 |
